# Test results as given in ChEMBL document CHEMBL3430912, “GSK Tres Cantos Anti-Kinetoplastid Screening (TCAKS) Data”.
# Experiments:
# [1] = test system: Leishmania donovani; experiment: (§1) GSK_TCAKS: pIC50 Leishmania donovani Imaging: Amastigotes/Macrophages. Assay plates (384-well) were prepared by adding 250nL of compound to each well. For single shot assay, the final compound concentration was 5 uM. […] Automated image analysis was performed with a script developed on Acapella High Content Imaging and Analysis Software (PerkinElmer). Output: Average number of amastigotes per macrophage cell were reported for each well.; type: functional, organism-based, Homo sapiens; settings: THP-1
# [2] = test system: Leishmania donovani; experiment: as §1, with “Infected Macrophages.” for “Amastigotes/Macrophages.”, “Percent” for “Average number”, “infected” for “amastigotes per”, “cells” for “cell”; type: functional, organism-based, Homo sapiens; settings: THP-1
# [3] = test system: Trypanosoma cruzi; experiment: GSK_TCAKS: pIC50 Trypanosoma cruzi Imaging: Amastigotes/Cell. […] Cells were then washed once with PBS before infection. T. cruzi trypomastigotes, collected at days 5 to 8 after infection from LLC-MK2 parasite infected cultures, were allowed to swim out for 4h at 37C from a centrifuged pellet (2,500 rpm/10 min/room temperature). Trypomastigotes were then collected and counted in a CASY Cell Counter. Trypomastigotes, in supplemented DMEM, were added to H9c2 cultures in a multiplicity of infection of 1 and incubated for 18 h. Cells were washed once with PBS before incubation of the infected H9c2 monolayer with trypsin (Life-Technologies) to detach cells from the flask. Cells were counted in a CASY Cell Counter using a 150 um capillary and their density set at 5 * 10^4 cells per mL in supplemented assay DMEM. Infected H9c2 were dispensed into 384-well poly-lysine coated assay plates at 50uL per well using a Multidrop Combi dispenser. After seeding them, the plates were incubated at 37C, 5% CO2 for 72h. Cultures were then fixed and stained by addition of 50 uL of a solution containing 8% formaldehyde and 4 uM DRAQ5 DNA dye (BioStatus, UK) per well. […] Five images were collected per well for reliable statistical analysis. Automated image analysis was performed with a script developed on Acapella High Content Imaging and Analysis Software (PerkinElmer). Output: number of amastigotes per cell as infection level measurement.; type: functional, organism-based, Rattus norvegicus; settings: H9c2, 4 h
# [4] = test system: Leishmania donovani; experiment: GSK_TCAKS: pIC50 Leishmania donovani viability assay using fluorescence intensity. Assay plates (1536-well) were prepared by adding 30nL per well of compound. For single shot assay, the final compound concentration was 5uM. […] Briefly, eGFP LdBOB axenic amastigotes were harvested, fixed and counted in a CASY cell counter (Roche-Applied Science). A final concentration of 1.5 * 10^5 cells per well were prepared in amastigote media containing 500 U/mL penicillin/streptomycin (Invitrogen) and 6uL was dispensed to each experimental well using a Multidrop Combi dispenser (Thermo Scientific). 6uL of assay media was dispensed to control columns used as reference for 100% compound response. Following incubation for 72 h at 37C, 5% CO2, 2 uL of resazurin was added to each well at a final concentration of 0.5 mM in phosphate buffered saline (PBS) with IGEPAL (Sigma-Aldrich), 0.05% (v/v).; type: functional, organism-based
# [5] = test system: Trypanosoma brucei brucei; experiment: GSK_TCAKS: pIC50 Trypanosoma brucei viability assay using luminiscence. Assay plates (1536-well) were prepared. T. brucei cultures were harvested and counted in a CASY cell counter. A parasite suspension was prepared at a final concentration of 5 * 10^4 cells/mL in complete HMI9 medium and 6uL was dispensed to all wells containing compounds using a Multidrop Combi dispenser. 6uL of HMI9 media with 0.4% DMSO were dispensed to control columns. Plates were incubated for 24 h at 37C, 5% CO2 then tempered for 10 min at room temperature. ATP content was quantified by adding 4 uL of CellTiter-Glo Reagent (Promega) according to the manufacturer's instructions. Luminescence was measured using a ViewLux.; type: functional, organism-based; settings: Lister 427, CASY
# [6] = test system: Trypanosoma brucei brucei; experiment: GSK_TCAKS: pIC50 Trypanosoma brucei viability assay using fluorescence intensity. Assay plates (1536-well) were prepared by dispensing 25nL of compound solution per well using an Echo acoustic dispenser (Labcyte).; type: functional, organism-based; settings: Lister 427, 2 h
# [7] = test system: Leishmania donovani; experiment: as §1, with “THP-1 Host Macrophages.” for “Amastigotes/Macrophages.”, “THP-1” for “Average number of amastigotes per macrophage”, “cell count” for “cell”; type: functional, organism-based, Homo sapiens
# [8] = test system: Trypanosoma cruzi; experiment: (§2) GSK_TCAKS: pIC50 Trypanosoma cruzi Imaging: Infected Cells. […] Cells were then washed once with PBS before infection. T. cruzi trypomastigotes, collected at days 5 to 8 after infection from LLC-MK2 parasite infected cultures, were allowed to swim out for 4h at 37C from a centrifuged pellet (2,500 rpm/10 min/room temperature). Trypomastigotes were then collected and counted in a CASY Cell Counter. Trypomastigotes, in supplemented DMEM, were added to H9c2 cultures in a multiplicity of infection of 1 and incubated for 18 h. Cells were washed once with PBS before incubation of the infected H9c2 monolayer with trypsin (Life-Technologies) to detach cells from the flask. Cells were counted in a CASY Cell Counter using a 150 um capillary and their density set at 5 * 10^4 cells per mL in supplemented assay DMEM. Infected H9c2 were dispensed into 384-well poly-lysine coated assay plates at 50uL per well using a Multidrop Combi dispenser. After seeding them, the plates were incubated at 37C, 5% CO2 for 72h. Cultures were then fixed and stained by addition of 50 uL of a solution containing 8% formaldehyde and 4 uM DRAQ5 DNA dye (BioStatus, UK) per well. […] Five images were collected per well for reliable statistical analysis. Automated image analysis was performed with a script developed on Acapella High Content Imaging and Analysis Software (PerkinElmer). Output: percentage of infected cells per well as a second infection marker.; type: functional, organism-based, Rattus norvegicus; settings: H9c2, 4 h
# [9] = test system: Trypanosoma cruzi; experiment: GSK_TCAKS: pIC50 Trypanosoma cruzi viability assay using beta-GAL activity. This assay was run at single shot at 5uM compound concentration per well. The biological reagents consisted of NIH-3T3 host cells and trypomastigotes parasitic cells; both cell types were set to a 3.3 * 10^5 cells/mL dilution in assay DMEM by means of a CASY cell counter device using a 60um capillary. 6 uL of the mixture were dispensed per well (about 1 * 10^3 host-cells and 1 * 10^3 parasites) with a Multidrop Combi dispenser. […] In all wells, the percentage of DMSO never exceeded 0.5%. Plates incubated for four days at 37C, 5% CO2. The substrate used for the assay fluorescence intensity (FLINT) readout was resorufin-beta-D-galactopiranoside (Sigma-Aldrich) at 5uM per well. It was diluted in PBS supplemented with the soft detergent Igepal (Fluka).; type: functional, organism-based, Mus musculus; settings: Tulahuen, NIH3T3
# [10] = GSK_TCAKS: pIC50 HepG2 human cell line viability assay using luminiscence. […] Seeding density was checked to ensure that new mono-layers were not more than 50% confluent at the time of harvesting. Cell suspension was added to 500 mL of the same medium at a final density of 1.2 * 10^5 cells/mL. This cell suspension was dispensed (25 uL, 3000 cells per well) into 384-well clear-bottom plates using a Multidrop Combi dispenser. Prior to addition of the cell suspension, the screening compounds (250 nL) were pre-dispensed into the plates with an Echo liquid handler. Plates were incubated for 48 h at 37C, 5% CO2. After incubation, plates equilibrated at room temperature for 30 min before proceeding to develop the luminescent signal. The signal developer, CellTiter-Glo Reagent, was allowed to equilibrate at room temperature for 30 min and added to the plates (25uL per well) using a Multidrop Combi dispenser. Plates were left for 10 min at room temperature for stabilization and then read using a ViewLux.; type: toxicity, cell-based
# [11] = target: Sterol 14-alpha demethylase (Trypanosoma cruzi (strain CL Brener), UniProt Q7Z1V1); experiment: GSK_TCAKS: pIC50 CYP51 from Trypanosoma cruzi.; type: functional
# Chain of Sterol 14-alpha demethylase (Q7Z1V1 whole entry): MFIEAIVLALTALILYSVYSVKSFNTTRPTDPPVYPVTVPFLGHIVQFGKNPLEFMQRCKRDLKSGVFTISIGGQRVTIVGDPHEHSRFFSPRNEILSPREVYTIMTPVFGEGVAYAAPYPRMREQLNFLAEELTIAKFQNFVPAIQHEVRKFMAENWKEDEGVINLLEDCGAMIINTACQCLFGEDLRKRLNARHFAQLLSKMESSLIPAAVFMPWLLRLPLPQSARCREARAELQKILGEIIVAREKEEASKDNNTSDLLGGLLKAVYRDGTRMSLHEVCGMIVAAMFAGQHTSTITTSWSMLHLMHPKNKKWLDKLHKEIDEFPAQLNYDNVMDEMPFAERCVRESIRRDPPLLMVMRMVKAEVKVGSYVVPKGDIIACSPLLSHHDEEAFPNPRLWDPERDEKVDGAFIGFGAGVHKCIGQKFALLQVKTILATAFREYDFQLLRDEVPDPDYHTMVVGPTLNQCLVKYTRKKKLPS
# [12] = test system: Trypanosoma cruzi; experiment: as §2, with “H2C9” for “Trypanosoma cruzi”, “H9c2 Host Cardiomyocytes.” for “Infected Cells.”, “Number” for “percentage”, “H9c2 Host Cardiomyocytes nuclei to determine drug-related cytotoxicity.” for “infected cells per well as a second infection marker.”; type: functional, organism-based, Rattus norvegicus; settings: H9c2, 4 h
Structure (SMILES),IC50 [1],IC50 [2],IC50 [3],IC50 [4],IC50 [5],IC50 [6],IC50 [7],IC50 [8],IC50 [9],IC50 at 48 h [10],IC50 [11],IC50 [12]
COc1ccc(C(=O)Nc2c(C)nn(COc3cccc(C(F)(F)F)c3)c2C)cc1,> 50.1 µM,> 50.1 µM,25.1 µM,> 50.1 µM,0.794 µM,0.794 µM,31.6 µM,39.8 µM,25.1 µM,> 100 µM,12.6 µM,> 50.1 µM
Cc1cc2nc(N3CC[C@H]3C(N)=O)nc(Nc3cc(C4CC4)[nH]n3)c2s1,1.26 µM,2 µM,3.98 µM,0.794 µM,0.126 µM,0.0794 µM,0.794 µM,7.94 µM,6.31 µM,> 100 µM,> 100 µM,0.501 µM
COc1ccc(-c2cc(C)no2)cc1S(=O)(=O)Nc1ccc(C)c(C)c1,2 µM,2.51 µM,5.01 µM,7.94 µM,20 µM,20 µM,> 50.1 µM,7.94 µM,5.01 µM,> 100 µM,15.8 µM,15.8 µM
COc1ccc(-c2cnc(C)o2)cc1S(=O)(=O)Nc1ccc(C)cc1C,2.51 µM,3.16 µM,3.16 µM,3.98 µM,31.6 µM,6.31 µM,> 50.1 µM,3.16 µM,2.82 µM,> 100 µM,25.1 µM,> 50.1 µM
CNc1nc(C)nc(N2CCc3cc(C(=O)NCc4ccc(-c5cc[nH]n5)cc4Cl)ccc32)n1,0.398 µM,0.316 µM,> 50.1 µM,2.51 µM,10 µM,12.6 µM,> 50.1 µM,> 50.1 µM,> 50.1 µM,> 100 µM,5.01 µM,20 µM
O=C(c1cccc(Nc2ncc(-c3ccc4c(c3)OCO4)cn2)c1)N1CCOCC1,1.58 µM,3.98 µM,0.794 µM,2 µM,> 50.1 µM,25.1 µM,> 63.1 µM,1.26 µM,6.31 µM,> 126 µM,20 µM,6.31 µM
O=C1CN(C(=O)c2cccc(Nc3ncc(-c4ccc5c(c4)OCO5)cn3)c2)CCN1,2 µM,5.01 µM,0.501 µM,1.58 µM,> 50.1 µM,> 50.1 µM,> 63.1 µM,0.794 µM,1.58 µM,> 126 µM,25.1 µM,> 63.1 µM
O=C(Nc1nc2ccccc2[nH]1)c1ccc2[nH]cnc2c1,3.16 µM,5.01 µM,50.1 µM,2.51 µM,> 39.8 µM,> 39.8 µM,> 50.1 µM,> 50.1 µM,25.1 µM,50.1 µM,5.01 µM,> 50.1 µM
CNc1nc(C)nc(N2CCc3cc(C(=O)NCc4ccc(-c5nccn5C)cc4Cl)ccc32)n1,0.794 µM,0.794 µM,5.01 µM,5.01 µM,20 µM,12.6 µM,25.1 µM,12.6 µM,5.01 µM,31.6 µM,1.58 µM,50.1 µM
COc1ncc(-c2ccc3ncnc(N4CCOCC4)c3c2)cc1NS(C)(=O)=O,0.631 µM,5.01 µM,2.51 µM,3.16 µM,0.501 µM,0.316 µM,1 µM,6.31 µM,0.501 µM,> 100 µM,39.8 µM,1.58 µM
COc1ccc(CNc2nsc3ccccc23)cc1OC,5.01 µM,6.31 µM,20 µM,3.16 µM,6.31 µM,7.94 µM,25.1 µM,25.1 µM,6.31 µM,50.1 µM,12.6 µM,> 50.1 µM
CC1CN(Cc2ccc(C#N)cc2)CCN1c1ccc(NC(=O)c2ccccc2F)cc1 (centres undefined),5.01 µM,10 µM,> 50.1 µM,39.8 µM,> 39.8 µM,> 39.8 µM,> 50.1 µM,> 50.1 µM,25.1 µM,> 100 µM,31.6 µM,> 50.1 µM
COc1ncc(-c2ccc3nccc(-c4ccncc4)c3c2)cc1NS(C)(=O)=O,0.631 µM,2.51 µM,12.6 µM,3.16 µM,1 µM,0.316 µM,3.16 µM,25.1 µM,1.58 µM,> 100 µM,79.4 µM,5.01 µM
CCCCc1cc(Nc2cc(C3CCC3)[nH]n2)nc(N2CCC2C(N)=O)n1 (centres undefined),0.631 µM,2 µM,1.58 µM,3.98 µM,0.158 µM,0.126 µM,1 µM,3.16 µM,3.16 µM,> 100 µM,> 100 µM,0.794 µM
O=C(COc1nn(-c2ccccc2)c2ncccc12)NCc1ccccc1,0.0794 µM,0.316 µM,31.6 µM,0.398 µM,> 39.8 µM,> 39.8 µM,> 50.1 µM,> 50.1 µM,12.6 µM,> 100 µM,6.31 µM,> 50.1 µM
CC(=O)NCCNc1cc(-c2ccnc(Nc3cccc(Cl)c3)n2)ccn1,0.1 µM,0.251 µM,0.158 µM,0.316 µM,0.2 µM,0.2 µM,0.1 µM,1.58 µM,0.398 µM,25.1 µM,5.01 µM,0.398 µM
CC(C)n1c(-c2nonc2N)nc2cccc(OCCN3CCCC3)c21,20 µM,31.6 µM,25.1 µM,> 50.1 µM,0.794 µM,0.794 µM,31.6 µM,15.8 µM,10 µM,> 100 µM,39.8 µM,31.6 µM
